In brackets after ≈: the same amount, converted by molar mass.
Experiments:
Type in all cases: cell-based
[1] = test system: Ps. aeruginosa ATCC 10145; test: MIC by agar dilution, Ps. aeruginosa ATCC 10145; conditions: Pseudomonas aeruginosa, ATCC10145, 17 h, Mueller-Hinton agar, read-out: Minimal Inhibitory Concentration (MIC)
Outline: (§1)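 Agar incorporation method in Mueller-Hinton medium, compound in two-fold series; 10^6 CFU/ml spots; read after 17±1 h, 35°-37° C.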

E. coli NIHJ JC-2 = test: MIC by agar dilution, E. coli NIHJ JC-2; conditions: Escherichia coli, NIHJJC2, 17 h; E. coli NIHJ JC-2; agar dilution, Mueller-Hinton agar; read-out: Minimal Inhibitory Concentration (MIC)
Outline: as §1

[2] = test system: S. epidermidis ATCC 12228; test: MIC by agar dilution, S. epidermidis ATCC 12228; conditions: Staphylococcus epidermidis, ATCC12228, 17 h; S. epidermidis ATCC 12228; agar dilution, Mueller-Hinton agar; read-out: Minimal Inhibitory Concentration (MIC)
Outline: as §1

K. pneumoniae NCTC 9632 = test: MIC by agar dilution, K. pneumoniae NCTC 9632; conditions: Klebsiella pneumoniae, NCTC9632, 17 h; K. pneumoniae NCTC 9632; agar dilution, Mueller-Hinton agar; read-out: Minimal Inhibitory Concentration (MIC)
Outline: as §1

M. morganii DY-1 = test: MIC by agar dilution, M. morganii DY-1; conditions: Morganella morganii, DY1, 17 h; M. morganii DY-1; agar dilution, Mueller-Hinton agar; read-out: Minimal Inhibitory Concentration (MIC)
Outline: as §1

[3] = test system: Ps. aeruginosa NCTC 10490; test: MIC by agar dilution, Ps. aeruginosa NCTC 10490; conditions: Pseudomonas aeruginosa, NCTC10490, 17 h, Mueller-Hinton agar, read-out: Minimal Inhibitory Concentration (MIC)
Outline: as §1

Staph. aureus C-5216 = test: MIC by agar dilution, Staph. aureus C-5216; conditions: Staphylococcus aureus, C5216, 17 h, Mueller-Hinton agar, read-out: Minimal Inhibitory Concentration (MIC)
Outline: as §1

Ent. cloacae IFO 13535 = test: MIC by agar dilution, Ent. cloacae IFO 13535; conditions: Enterobacter cloacae, IFO13535, 17 h; Ent. cloacae IFO 13535; agar dilution, Mueller-Hinton agar; read-out: Minimal Inhibitory Concentration (MIC)
Outline: as §1

P. vulgaris NCTC 8313 = test: MIC by agar dilution, P. vulgaris NCTC 8313; conditions: Proteus vulgaris, NCTC8313, 17 h; P. vulgaris NCTC 8313; agar dilution, Mueller-Hinton agar; read-out: Minimal Inhibitory Concentration (MIC)
Outline: as §1

[4] = test system: Ser. marcescens IFO 12648; test: MIC by agar dilution, Ser. marcescens IFO 12648; conditions: Serratia marcescens, IFO12648, 17 h; Ser. marcescens IFO 12648; agar dilution, Mueller-Hinton agar; read-out: Minimal Inhibitory Concentration (MIC)
Outline: as §1

Staph. aureus C-5113 = test: MIC by agar dilution, Staph. aureus C-5113; conditions: Staphylococcus aureus, C5113, 17 h, Mueller-Hinton agar, read-out: Minimal Inhibitory Concentration (MIC)
Outline: as §1

Staph. aureus C-57 = test: MIC by agar dilution, Staph. aureus C-57; conditions: Staphylococcus aureus, C57, 17 h, Mueller-Hinton agar, read-out: Minimal Inhibitory Concentration (MIC)
Outline: as §1

Staph. aureus Smith = test: MIC by agar dilution, Staph. aureus Smith; conditions: Staphylococcus aureus, 17 h, Mueller-Hinton agar, read-out: Minimal Inhibitory Concentration (MIC)
Outline: as §1

Ps. aeruginosa DY-2 = test: MIC by agar dilution, Ps. aeruginosa DY-2; conditions: Pseudomonas aeruginosa, DY2, 17 h; Ps. aeruginosa DY-2; agar dilution, Mueller-Hinton agar; read-out: Minimal Inhibitory Concentration (MIC)
Outline: as §1

E. coli DY-1 = test: MIC by agar dilution, E. coli DY-1; conditions: Escherichia coli, DY1, 17 h; E. coli DY-1; agar dilution, Mueller-Hinton agar; read-out: Minimal Inhibitory Concentration (MIC)
Outline: as §1

Prov. stuartii IFO 12930 = test: MIC by agar dilution, Prov. stuartii IFO 12930; conditions: Providencia stuartii, IFO12930, 17 h, Mueller-Hinton agar, read-out: Minimal Inhibitory Concentration (MIC)
Outline: as §1

E. coli No. 29 = test: MIC by agar dilution, E. coli No. 29; conditions: Escherichia coli, 17 h; E. coli No. 29; agar dilution, Mueller-Hinton agar; read-out: Minimal Inhibitory Concentration (MIC)
Outline: as §1

Staph. aureus ATCC 6538P = test: MIC by agar dilution, Staph. aureus ATCC 6538P; conditions: Staphylococcus aureus, ATCC6538P, 17 h; Staph. aureus ATCC 6538P; agar dilution, Mueller-Hinton agar; read-out: Minimal Inhibitory Concentration (MIC)
Outline: as §1

B. subtilis ATCC 6633 = test: MIC by agar dilution, B. subtilis ATCC 6633; conditions: Bacillus subtilis, ATCC6633, 17 h; B. subtilis ATCC 6633; agar dilution, Mueller-Hinton agar; read-out: Minimal Inhibitory Concentration (MIC)
Outline: as §1

Ent. aerogenes IFO 12979 = test: MIC by agar dilution, Ent. aerogenes IFO 12979; conditions: Klebsiella aerogenes, IFO12979, 17 h, Mueller-Hinton agar, read-out: Minimal Inhibitory Concentration (MIC)
Outline: as §1

Row | MIC [1] [µg/mL] | MIC (E. coli NIHJ JC-2) [µg/mL] | MIC [2] [µg/mL] | MIC (K. pneumoniae NCTC 9632) [µg/mL] | MIC (M. morganii DY-1) [µg/mL] | MIC [3] [µg/mL] | MIC (Staph. aureus C-5216) [µg/mL] | MIC (Ent. cloacae IFO 13535) [µg/mL] | MIC (P. vulgaris NCTC 8313) [µg/mL] | MIC [4] [µg/mL] | MIC (Staph. aureus C-5113) [µg/mL] | MIC (Staph. aureus C-57) [µg/mL] | MIC (Staph. aureus Smith) [µg/mL] | MIC (Ps. aeruginosa DY-2) [µg/mL] | MIC (E. coli DY-1) [µg/mL] | MIC (Prov. stuartii IFO 12930) [µg/mL] | MIC (E. coli No. 29) [µg/mL] | MIC (Staph. aureus ATCC 6538P) [µg/mL] | MIC (B. subtilis ATCC 6633) [µg/mL] | MIC (Ent. aerogenes IFO 12979) [µg/mL] | SMILES
1 | 0.39 (≈ 0.694 µM) | ≤ 0.006 | 0.025 (≈ 0.0445 µM) | ≤ 0.006 | ≤ 0.006 | 0.1 (≈ 0.178 µM) | 0.78 (≈ 1.39 µM) | 0.05 (≈ 0.089 µM) | ≤ 0.006 | ≤ 0.006 | 1.56 (≈ 2.78 µM) | 50 (≈ 89 µM) | 0.78 (≈ 1.39 µM) | 1.56 (≈ 2.78 µM) | ≤ 0.006 | ≤ 0.006 | ≤ 0.006 | 0.2 (≈ 0.356 µM) | 0.1 (≈ 0.178 µM) | ≤ 0.006 | Nc1nc(C(=NOCF)C(=O)NC2C(=O)N3C(C(=O)[O-])=C(C[n+]4ccn5c(CO)ccc5c4)CSC23)cs1 (stereo not drawn) [Ex. 22, 7-β-[(Z)-2-(2-aminothiazol-4-yl)-2-fluoromethoxyiminoacetamido]-3-(6-hydroxymethylpyrrolo[1,2-a]pyrazinium-2-yl)methyl-3-cephem-4-carboxylate]
2 | 50 (≈ 83.7 µM) | 0.78 (≈ 1.3 µM) | 0.2 (≈ 0.335 µM) | 0.78 (≈ 1.3 µM) | 1.56 (≈ 2.61 µM) | 25 (≈ 41.8 µM) | 6.25 (≈ 10.5 µM) | 3.13 (≈ 5.24 µM) | 0.05 (≈ 0.0837 µM) | 0.78 (≈ 1.3 µM) | 1.56 (≈ 2.61 µM) | 100 (≈ 167 µM) | 3.13 (≈ 5.24 µM) | 100 (≈ 167 µM) | 0.1 (≈ 0.167 µM) | 0.2 (≈ 0.335 µM) | 0.2 (≈ 0.335 µM) | 0.39 (≈ 0.652 µM) | 0.2 (≈ 0.335 µM) | 0.2 (≈ 0.335 µM) | CO/N=C(\C(=O)N[C@@H]1C(=O)N2C(C(=O)[O-])=C(C[n+]3ccn4c(C(C)C)cc(C(C)C)c4c3)CS[C@H]12)c1csc(N)n1 [Ex. 36, 7-β-[(Z)-2-(2-aminothiazol-4-yl)-2-methoxyiminoacetamido]-3-(6,8-diisopropyl-pyrrolo[1,2-a]pyrazinium-2-yl)methyl-3-cephem-4-carboxylate]
3 | 3.13 (≈ 5.57 µM) | 0.025 (≈ 0.0445 µM) | 0.012 (≈ 0.0214 µM) | 0.012 (≈ 0.0214 µM) | 0.012 (≈ 0.0214 µM) | 0.39 (≈ 0.694 µM) | 0.78 (≈ 1.39 µM) | 0.05 (≈ 0.089 µM) | ≤ 0.006 | 0.025 (≈ 0.0445 µM) | 0.39 (≈ 0.694 µM) | 6.25 (≈ 11.1 µM) | 0.39 (≈ 0.694 µM) | 6.25 (≈ 11.1 µM) | 0.012 (≈ 0.0214 µM) | ≤ 0.006 | 0.012 (≈ 0.0214 µM) | 0.1 (≈ 0.178 µM) | 0.1 (≈ 0.178 µM) | 0.025 (≈ 0.0445 µM) | CO/N=C(\C(=O)N[C@@H]1C(=O)N2C(C(=O)[O-])=C(C[n+]3ccn4c(Cl)ccc4c3C)CS[C@H]12)c1csc(N)n1 [Ex. 45, 7-β-[(Z)-2-(2-aminothiazol-4-yl)-2-methoxyiminoacetamido]-3-(6-chloro-1-methylpyrrolo[1,2-a]pyrazinium-2-yl)methyl-3-cephem-4-carboxylate]
4 | 1.56 (≈ 2.78 µM) | 0.05 (≈ 0.089 µM) | 0.05 (≈ 0.089 µM) | 0.025 (≈ 0.0445 µM) | 0.025 (≈ 0.0445 µM) | 0.39 (≈ 0.694 µM) | 0.78 (≈ 1.39 µM) | 0.39 (≈ 0.694 µM) | 0.012 (≈ 0.0214 µM) | 0.025 (≈ 0.0445 µM) | 0.78 (≈ 1.39 µM) | 12.5 (≈ 22.2 µM) | 0.39 (≈ 0.694 µM) | 6.25 (≈ 11.1 µM) | 0.012 (≈ 0.0214 µM) | 0.025 (≈ 0.0445 µM) | 0.012 (≈ 0.0214 µM) | 0.2 (≈ 0.356 µM) | 0.1 (≈ 0.178 µM) | 0.025 (≈ 0.0445 µM) | CCON=C(C(=O)NC1C(=O)N2C(C(=O)[O-])=C(C[n+]3ccn4c(Cl)ccc4c3)CSC12)c1csc(N)n1 (stereo not drawn) [Ex. 12, 7-β-[(Z)-2-(2-aminothiazol-4-yl)-2-ethoxyiminoacetamido]-3-(6-chloropyrrolo[1,2-a]pyrazinium-2-yl)methyl-3-cephem-4-carboxylate]

Reference: US5593984A, “Cephalosporin derivatives” (Yuhan Corporation, priority 1992, dated 1997)
